Earlier results in patent US12036329B2, “Mucoadhesive dispersion nanoparticle system and method for production the same” (LEAD BIOTHERAPEUTICS LTD, priority 2018, dated 2024).

System: alpha-adrenergic receptor
Conditions: generally accepted

For `Cc1cc(C(C)(C)C)cc(C)c1CC1=NCCN1` [xylometazoline], the Duration of effect is given as 5 to 6 h.
